Earlier results, collected in publication PMC4310643 (ACS Nano, 2015).

Tested on: ABIR

binding affinity to ABIR: high binding affinity to ABIR
Substance: Arg-Gly-Asp-DPhe-Lys (head to tail) [cRGDfK, cyclic peptide, arginine-glycine-aspartic acid-(D)phenylalanine-lysine]
